Reference: ChEMBL document CHEMBL3352554, “Synthesis and structure-activity relationships of 4-fluorophenyl-imidazole p38α MAPK, CK1δ and JAK2 kinase inhibitors” (Bioorg Med Chem Lett, 2014)
Calls of active or inactive are those of the source. The calls are words filed in the database; no cut-off is given here.

Columns and labels:
[1] = target: Tyrosine-protein kinase JAK2 (Homo sapiens, UniProt O60674); experiment: Inhibition of JAK2 (unknown origin) by radiometric assay
[2] = target: Casein kinase I isoform delta (Homo sapiens, UniProt P48730); experiment: Inhibition of CK1-delta (unknown origin) by radiometric assay
Chain of Casein kinase I isoform delta (P48730 whole entry, canonical isoform): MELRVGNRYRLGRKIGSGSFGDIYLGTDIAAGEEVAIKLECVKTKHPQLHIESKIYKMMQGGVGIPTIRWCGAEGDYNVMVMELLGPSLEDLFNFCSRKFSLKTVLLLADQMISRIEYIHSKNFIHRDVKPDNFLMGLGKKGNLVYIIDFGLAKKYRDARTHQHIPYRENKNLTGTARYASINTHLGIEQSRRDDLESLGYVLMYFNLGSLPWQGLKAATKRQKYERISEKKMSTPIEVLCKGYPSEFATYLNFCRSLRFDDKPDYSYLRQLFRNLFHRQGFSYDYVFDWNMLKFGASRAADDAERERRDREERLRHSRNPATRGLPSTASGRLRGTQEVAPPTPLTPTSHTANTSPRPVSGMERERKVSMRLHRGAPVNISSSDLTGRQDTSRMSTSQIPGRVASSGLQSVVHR

[3] = target: Tyrosine-protein kinase JAK1 (Homo sapiens, UniProt P23458); experiment: Inhibition of JAK1 (unknown origin) by radiometric assay
Chain of Tyrosine-protein kinase JAK1 (P23458 whole entry): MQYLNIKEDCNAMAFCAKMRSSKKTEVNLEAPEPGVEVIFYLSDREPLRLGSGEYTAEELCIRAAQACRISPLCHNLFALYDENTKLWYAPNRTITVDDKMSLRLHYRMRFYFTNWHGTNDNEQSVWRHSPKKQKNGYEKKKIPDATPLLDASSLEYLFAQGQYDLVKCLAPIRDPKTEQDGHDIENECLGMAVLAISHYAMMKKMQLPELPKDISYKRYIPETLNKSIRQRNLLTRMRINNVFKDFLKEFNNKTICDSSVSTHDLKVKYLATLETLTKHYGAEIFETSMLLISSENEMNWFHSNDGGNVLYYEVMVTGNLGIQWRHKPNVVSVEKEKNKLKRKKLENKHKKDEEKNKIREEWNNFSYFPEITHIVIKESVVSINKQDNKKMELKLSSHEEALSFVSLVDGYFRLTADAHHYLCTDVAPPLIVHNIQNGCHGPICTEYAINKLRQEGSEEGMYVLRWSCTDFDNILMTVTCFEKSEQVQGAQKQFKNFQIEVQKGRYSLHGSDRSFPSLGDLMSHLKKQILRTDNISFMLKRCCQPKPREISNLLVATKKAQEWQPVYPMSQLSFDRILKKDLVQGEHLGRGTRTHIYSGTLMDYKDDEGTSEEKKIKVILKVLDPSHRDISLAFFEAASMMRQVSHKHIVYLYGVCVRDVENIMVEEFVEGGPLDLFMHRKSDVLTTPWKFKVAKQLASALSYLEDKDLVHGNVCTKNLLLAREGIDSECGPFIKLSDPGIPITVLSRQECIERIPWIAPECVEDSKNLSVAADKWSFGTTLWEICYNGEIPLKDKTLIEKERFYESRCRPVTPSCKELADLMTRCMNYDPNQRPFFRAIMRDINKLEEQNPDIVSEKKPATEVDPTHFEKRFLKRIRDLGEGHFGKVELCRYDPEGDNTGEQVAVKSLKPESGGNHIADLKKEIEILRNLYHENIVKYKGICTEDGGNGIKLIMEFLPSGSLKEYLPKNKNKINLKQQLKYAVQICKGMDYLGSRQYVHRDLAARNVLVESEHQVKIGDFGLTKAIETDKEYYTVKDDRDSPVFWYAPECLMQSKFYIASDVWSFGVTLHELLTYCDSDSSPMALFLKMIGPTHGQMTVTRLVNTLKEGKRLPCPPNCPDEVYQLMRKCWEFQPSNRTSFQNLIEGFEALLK

[4] = target: T1, Tyrosine-protein kinase JAK3 (Homo sapiens, UniProt P52333); experiment: Inhibition of JAK3 (unknown origin) by radiometric assay
T1 sequence (P52333 whole entry): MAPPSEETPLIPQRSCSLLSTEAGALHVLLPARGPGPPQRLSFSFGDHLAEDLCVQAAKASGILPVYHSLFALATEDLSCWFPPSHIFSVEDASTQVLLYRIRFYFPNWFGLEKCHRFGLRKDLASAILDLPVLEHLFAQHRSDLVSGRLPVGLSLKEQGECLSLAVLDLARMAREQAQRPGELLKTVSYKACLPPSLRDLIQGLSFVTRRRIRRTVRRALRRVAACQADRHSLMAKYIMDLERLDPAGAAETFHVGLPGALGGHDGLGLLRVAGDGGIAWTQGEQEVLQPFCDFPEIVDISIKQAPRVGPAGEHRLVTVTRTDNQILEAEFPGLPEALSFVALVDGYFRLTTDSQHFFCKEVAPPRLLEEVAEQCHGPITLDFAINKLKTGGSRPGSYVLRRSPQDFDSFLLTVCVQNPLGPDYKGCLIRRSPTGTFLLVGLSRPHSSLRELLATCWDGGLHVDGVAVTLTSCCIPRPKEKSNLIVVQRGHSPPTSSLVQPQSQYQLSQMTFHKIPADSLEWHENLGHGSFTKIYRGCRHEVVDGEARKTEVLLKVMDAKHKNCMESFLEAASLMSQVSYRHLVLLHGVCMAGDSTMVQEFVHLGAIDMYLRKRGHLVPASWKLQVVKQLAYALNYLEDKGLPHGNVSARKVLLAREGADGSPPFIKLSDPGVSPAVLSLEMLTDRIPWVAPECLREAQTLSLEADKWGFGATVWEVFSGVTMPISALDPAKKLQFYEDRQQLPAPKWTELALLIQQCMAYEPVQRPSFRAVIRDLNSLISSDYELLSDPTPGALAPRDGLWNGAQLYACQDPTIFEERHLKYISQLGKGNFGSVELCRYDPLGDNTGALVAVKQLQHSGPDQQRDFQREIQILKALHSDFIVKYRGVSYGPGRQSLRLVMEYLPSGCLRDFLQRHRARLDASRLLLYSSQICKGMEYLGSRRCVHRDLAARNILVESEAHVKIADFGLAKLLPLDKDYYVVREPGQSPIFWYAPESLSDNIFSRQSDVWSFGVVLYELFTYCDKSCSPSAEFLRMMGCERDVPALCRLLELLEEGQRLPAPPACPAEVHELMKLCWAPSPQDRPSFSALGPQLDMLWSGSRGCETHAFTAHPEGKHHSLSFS

[5] = target: T2, Mitogen-activated protein kinase 14 (Homo sapiens, UniProt Q16539); experiment: Inhibition of p38alpha MAPK (unknown origin) by radiometric assay
T2 sequence (Q16539 whole entry): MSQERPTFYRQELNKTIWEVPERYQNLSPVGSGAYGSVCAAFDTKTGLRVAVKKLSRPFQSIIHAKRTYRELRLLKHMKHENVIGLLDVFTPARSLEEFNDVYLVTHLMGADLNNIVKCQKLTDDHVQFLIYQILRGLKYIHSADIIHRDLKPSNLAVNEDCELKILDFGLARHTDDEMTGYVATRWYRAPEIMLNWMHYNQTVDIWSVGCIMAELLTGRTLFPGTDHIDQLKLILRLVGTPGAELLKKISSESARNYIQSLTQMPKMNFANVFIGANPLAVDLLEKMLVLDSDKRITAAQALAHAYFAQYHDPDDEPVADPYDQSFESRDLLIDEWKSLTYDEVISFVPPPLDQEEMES

[6] = target: T2, Mitogen-activated protein kinase 14; experiment: Inhibition of p38alpha MAPK in TNF-alpha-induced HUVEC assessed as downregulation of COX-2 mRNA expression at 10 uM incubated for 4 hrs by RT-PCR analysis; format: cell-based
[7] = target: T2, Mitogen-activated protein kinase 14; experiment: Inhibition of p38alpha MAPK in TNF-alpha-induced HUVEC assessed as downregulation of VCAM-1 mRNA expression at 10 uM incubated for 4 hrs by RT-PCR analysis; format: cell-based
[8] = target: T2, Mitogen-activated protein kinase 14; experiment: Inhibition of p38alpha MAPK in TNF-alpha-induced HUVEC assessed as downregulation of IL-6 mRNA expression at 10 uM incubated for 4 hrs by RT-PCR analysis; format: cell-based
Homo sapiens [9] = organism: Homo sapiens; experiment: Selectivity ratio of IC50 for p38alpha MAPK (unknown origin) to IC50 for CK1-delta (unknown origin)
Homo sapiens [10] = organism: Homo sapiens; experiment: Selectivity ratio of IC50 for p38alpha MAPK (unknown origin) to IC50 for JAK2 (unknown origin)

Chain of Tyrosine-protein kinase JAK2 (O60674 whole entry, canonical isoform): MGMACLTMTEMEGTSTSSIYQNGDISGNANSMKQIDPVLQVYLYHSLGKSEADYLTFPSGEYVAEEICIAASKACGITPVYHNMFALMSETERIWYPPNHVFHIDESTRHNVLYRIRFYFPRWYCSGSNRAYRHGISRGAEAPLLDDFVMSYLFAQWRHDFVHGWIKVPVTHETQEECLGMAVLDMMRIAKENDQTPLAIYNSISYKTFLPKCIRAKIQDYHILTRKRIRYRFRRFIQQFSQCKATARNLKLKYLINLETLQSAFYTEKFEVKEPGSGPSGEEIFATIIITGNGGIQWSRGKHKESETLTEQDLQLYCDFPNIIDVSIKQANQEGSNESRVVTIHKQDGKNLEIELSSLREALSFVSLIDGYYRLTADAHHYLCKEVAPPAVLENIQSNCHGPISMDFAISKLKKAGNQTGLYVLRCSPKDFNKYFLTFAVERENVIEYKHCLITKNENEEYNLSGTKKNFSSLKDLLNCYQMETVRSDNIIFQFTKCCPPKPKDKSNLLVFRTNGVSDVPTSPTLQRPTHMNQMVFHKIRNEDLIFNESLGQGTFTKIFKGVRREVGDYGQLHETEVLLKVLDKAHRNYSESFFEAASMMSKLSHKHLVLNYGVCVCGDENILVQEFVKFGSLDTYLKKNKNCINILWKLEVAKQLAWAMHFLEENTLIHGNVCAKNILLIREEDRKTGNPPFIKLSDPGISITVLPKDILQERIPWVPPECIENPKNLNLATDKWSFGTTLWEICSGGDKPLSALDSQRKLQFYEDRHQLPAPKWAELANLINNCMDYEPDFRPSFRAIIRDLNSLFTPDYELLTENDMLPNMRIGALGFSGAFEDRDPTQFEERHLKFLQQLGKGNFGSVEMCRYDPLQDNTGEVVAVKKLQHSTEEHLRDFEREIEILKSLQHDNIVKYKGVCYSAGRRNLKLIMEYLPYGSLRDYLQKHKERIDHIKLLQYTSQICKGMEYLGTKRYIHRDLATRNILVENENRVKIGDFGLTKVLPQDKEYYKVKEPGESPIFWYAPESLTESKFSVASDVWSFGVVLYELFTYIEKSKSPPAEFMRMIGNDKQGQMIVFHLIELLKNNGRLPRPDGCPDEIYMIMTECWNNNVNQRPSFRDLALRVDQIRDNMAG

Compound	IC50 [1] [µM]	IC50 [2] [µM]	IC50 [3] [µM]	IC50 [4] [µM]	IC50 [5] [µM]	inhibition [6]	inhibition [7]	inhibition [8]	Ratio IC50 (Homo sapiens [9])	Ratio IC50 (Homo sapiens [10])
CCOP(=O)(CCn1cc(-c2ccc(-c3nc(-c4ccc(F)cc4)c(-c4cc[nH]c(=O)c4)[nH]3)cc2)nn1)OCC	4.2	44.3	23.9	37.4	> 100	–	–	–	–	–
O=c1cc(-c2[nH]c(-c3ccc(O)cc3)nc2-c2ccc(F)cc2)cc[nH]1	0.911	19.7	54.6	14.4	4.96	inactive	inactive	inactive	–	–
O=C(O)c1cc(-c2nc(-c3ccc(F)cc3)c(-c3cc[nH]c(=O)c3)[nH]2)ccc1O	3.71	21.2	> 100	21.4	6.81	inactive	inactive	inactive	–	–
C#Cc1ccn2c(-c3ccnc(SC)n3)c(-c3ccc(F)cc3)nc2n1	> 100	> 100	> 100	> 100	2.51	–	–	–	–	–
C[C@H](Nc1nccc(-c2c(-c3ccc(F)cc3)nc3nc(N)ccn23)n1)c1ccccc1	> 100	> 100	> 100	> 100	0.0085	–	–	–	–	–
CSc1nccc(-c2c(-c3ccc(F)cc3)nc3nc(-c4cn(CC(=O)O)nn4)ccn23)n1	> 100	> 100	> 100	> 100	0.25	–	–	–	–	–
CCOP(=O)(CCn1cc(-c2ccn3c(-c4ccnc(SC)n4)c(-c4ccc(F)cc4)nc3n2)nn1)OCC	> 100	21.4	> 100	> 100	12	–	–	–	–	–
O=c1cc(-c2[nH]c(-c3ccc(-c4cn(CCO)nn4)cc3)nc2-c2ccc(F)cc2)cc[nH]1	0.5	17.9	> 10	10.6	18.6	–	–	–	–	–
C#Cc1ccc(-c2nc(-c3ccc(F)cc3)c(-c3cc[nH]c(=O)c3)[nH]2)cc1	14.3	19.9	> 10	> 100	9.39	–	–	–	–	–
CSc1nccc(-c2c(-c3ccc(F)cc3)nc3nc(N)ccn23)n1	> 100	> 100	> 100	> 100	0.12	–	–	–	–	–
CCOC(=O)Cn1cc(-c2ccc(-c3nc(-c4ccc(F)cc4)c(-c4cc[nH]c(=O)c4)[nH]3)cc2)nn1	0.352	24.5	80.1	3.03	32.9	–	–	–	–	–
C#Cc1ccc(-c2nc(-c3ccc(F)cc3)c(-c3ccnc(SC)n3)[nH]2)cc1	> 100	66.3	> 100	> 100	82.1	–	–	–	–	–
O=C(O)c1ccc(-c2nc(-c3ccc(F)cc3)c(-c3cc[nH]c(=O)c3)[nH]2)cc1	0.274	24.8	14.1	3.9	2.94	inactive	inactive	inactive	10	10
CSc1nccc(-c2c(-c3ccc(F)cc3)nc3nc(-c4cn(CCP(=O)(O)O)nn4)ccn23)n1	> 100	> 100	> 100	> 100	> 100	–	–	–	–	–

These reach a lower IC50 [2]. Values come first.

IC50 [1] [µM]	IC50 [2] [µM]	IC50 [3] [µM]	IC50 [4] [µM]	IC50 [5] [µM]	inhibition [6]	inhibition [7]	inhibition [8]	Ratio IC50 (Homo sapiens [9])	Ratio IC50 (Homo sapiens [10])	Compound
0.061	12.1	1.68	0.783	2.53	–	–	–	–	–	O=c1cc(-c2[nH]c(-c3ccc(-c4nnn[nH]4)cc3)nc2-c2ccc(F)cc2)cc[nH]1
6.62	12	16.9	11.8	1.14	inactive	inactive	inactive	–	–	O=c1cc(-c2[nH]c(C3CCNCC3)nc2-c2ccc(F)cc2)cc[nH]1
–	10.8	> 100	> 100	> 100	–	–	–	–	–	O=c1cc(-c2[nH]c(-c3ccc(-c4cn(CCP(=O)(O)O)nn4)cc3)nc2-c2ccc(F)cc2)cc[nH]1
> 100	5.96	> 100	78.3	0.0955	–	–	–	–	–	CSc1nccc(-c2[nH]c(-c3ccc(O)cc3)nc2-c2ccc(F)cc2)n1
> 100	3.1	> 100	> 100	2.48	–	–	–	–	–	CCOP(=O)(CCn1cc(-c2nc(-c3ccc(F)cc3)c(-c3ccncc3)n2C)nn1)OCC
> 100	1.6	> 100	> 100	0.166	–	–	–	–	–	Cn1c(-c2cn(-c3ccc(C(=O)O)cc3)nn2)nc(-c2ccc(F)cc2)c1-c1ccncc1
> 100	0.439	> 100	> 100	1.02	–	–	–	–	–	Cn1c(-c2cn([C@@H]3[C@@H](O)[C@H](O)[C@@H](CO)O[C@H]3O)nn2)nc(-c2ccc(F)cc2)c1-c1ccncc1
> 100	0.437	> 100	> 100	–	–	–	–	–	–	Cn1c(-c2cn([C@H]3CCNC[C@@H]3F)nn2)nc(-c2ccc(F)cc2)c1-c1ccncc1
> 100	0.24	> 100	> 100	0.783	–	–	–	–	–	Cn1c(-c2cn(CCO)nn2)nc(-c2ccc(F)cc2)c1-c1ccncc1
> 100	0.225	> 100	> 100	–	–	–	–	–	–	Cn1c(-c2cn(CCP(=O)(O)O)nn2)nc(-c2ccc(F)cc2)c1-c1ccncc1
> 100	0.202	> 100	> 100	0.21	–	–	–	–	–	Cn1c(-c2c[nH]nn2)nc(-c2ccc(F)cc2)c1-c1ccncc1
> 100	0.188	> 100	> 100	–	–	–	–	–	–	Oc1ccc(-c2nc(-c3ccncc3)c(-c3ccc(F)cc3)[nH]2)cc1 [SB-202190]
> 100	0.089	> 100	> 100	–	–	–	–	–	–	Cn1c(-c2cn(-c3cccc(C(=O)O)c3)nn2)nc(-c2ccc(F)cc2)c1-c1ccncc1
